What was measured:
Experiment in all cases: biochemical
[1] = target: MST4 (Homo sapiens, UniProt Q9P289); conditions: 10 µM; binder
[2] = target: T1, MST1 (Homo sapiens, UniProt Q13043)
T1 sequence (Q13043 1-487): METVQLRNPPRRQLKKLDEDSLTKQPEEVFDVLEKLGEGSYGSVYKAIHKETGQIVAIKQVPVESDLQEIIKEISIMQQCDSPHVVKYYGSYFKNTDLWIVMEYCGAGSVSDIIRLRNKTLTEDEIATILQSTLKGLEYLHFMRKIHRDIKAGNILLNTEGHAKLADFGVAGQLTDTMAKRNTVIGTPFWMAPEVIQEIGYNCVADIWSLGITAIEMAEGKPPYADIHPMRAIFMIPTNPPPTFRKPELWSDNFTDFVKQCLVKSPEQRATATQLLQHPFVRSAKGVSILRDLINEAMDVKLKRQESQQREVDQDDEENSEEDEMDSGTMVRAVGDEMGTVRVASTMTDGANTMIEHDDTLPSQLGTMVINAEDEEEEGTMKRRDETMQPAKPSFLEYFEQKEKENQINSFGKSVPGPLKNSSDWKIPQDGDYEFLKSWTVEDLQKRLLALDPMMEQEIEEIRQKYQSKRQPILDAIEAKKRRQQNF

[3] = target: T2, MST2 (Homo sapiens, UniProt Q13188); conditions: 10 µM; binder
T2 sequence (Q13188 1-491): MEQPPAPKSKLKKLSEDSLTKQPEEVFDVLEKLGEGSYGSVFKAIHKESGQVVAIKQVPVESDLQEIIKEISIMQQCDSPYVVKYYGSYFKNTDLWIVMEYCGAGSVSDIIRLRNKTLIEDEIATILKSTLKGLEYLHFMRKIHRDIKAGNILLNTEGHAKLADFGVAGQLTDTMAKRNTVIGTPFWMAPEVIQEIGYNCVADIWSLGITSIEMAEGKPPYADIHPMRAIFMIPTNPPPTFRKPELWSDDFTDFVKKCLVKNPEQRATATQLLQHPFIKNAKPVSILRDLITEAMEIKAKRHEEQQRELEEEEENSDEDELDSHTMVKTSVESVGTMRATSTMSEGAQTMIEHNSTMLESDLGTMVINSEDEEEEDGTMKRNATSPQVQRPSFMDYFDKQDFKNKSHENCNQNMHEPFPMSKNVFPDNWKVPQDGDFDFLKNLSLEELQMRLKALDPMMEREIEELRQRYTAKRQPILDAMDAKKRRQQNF

MST4, sequence (Q9P289 whole entry): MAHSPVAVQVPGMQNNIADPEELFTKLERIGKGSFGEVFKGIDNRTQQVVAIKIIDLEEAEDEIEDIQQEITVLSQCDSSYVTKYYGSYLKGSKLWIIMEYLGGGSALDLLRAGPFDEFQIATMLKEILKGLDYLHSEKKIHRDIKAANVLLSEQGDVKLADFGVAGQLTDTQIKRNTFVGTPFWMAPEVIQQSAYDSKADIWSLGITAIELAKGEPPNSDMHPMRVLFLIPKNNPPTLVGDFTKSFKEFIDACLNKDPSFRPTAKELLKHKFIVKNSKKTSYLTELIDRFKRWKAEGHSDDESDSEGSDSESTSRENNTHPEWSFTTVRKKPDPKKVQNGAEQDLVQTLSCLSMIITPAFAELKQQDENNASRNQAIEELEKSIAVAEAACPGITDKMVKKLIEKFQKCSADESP

Row | dTm MST4 [1] [°C] | dTm MST1 ([2]; 10 µM, binder) [°C] | dTm MST2 [3] [°C] | SMILES | ΔTm at 10 µM ([2]; read-out: dTm MST1) [°C]
1 | 2.7 | 1.8 | 2.5 | CNc1ncc2cc(-c3ccc(-c4ncccc4F)cc3Cl)c(=O)n(C[C@H]3OC[C@H](N)CO3)c2n1 [compound 1, MRIA9] | –
2 | – | – | – | CN[C@@H]1C[C@H]2O[C@@](C)([C@@H]1OC)n1c3ccccc3c3c4c(c5c6ccccc6n2c5c31)C(=O)NC4 [Staurosporine] | 13.9

Source: publication doi:10.1101/2023.03.24.534094v2 (biorxiv, 2023)
